The values below come from patent US20230203060A1 (GENFLEET THERAPEUTICS (SHANGHAI) INC., priority 2020, published 2023).

For the assay, the target named is T1, KRAS G12C (Homo sapiens, UniProt P01116, G12C).
T1 construct: purchased Reactionbiology
T1 sequence (P01116 1-188 isoform P01116-2 G12C): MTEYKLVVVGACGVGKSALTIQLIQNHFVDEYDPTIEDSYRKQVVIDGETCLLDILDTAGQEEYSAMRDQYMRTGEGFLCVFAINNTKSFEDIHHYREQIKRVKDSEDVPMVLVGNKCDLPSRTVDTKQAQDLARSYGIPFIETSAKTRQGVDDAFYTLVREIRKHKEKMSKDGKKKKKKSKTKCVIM
As to the kind of experiment: KRAS G12C NEA-HTRF experiment (SOS1-catalyzed displacement of GDP by GTP). The format is biochemical. In outline: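 His-tagged KRAS G12C preloaded with DY647-GDP was preincubated 15 min at 20 °C with compound, then exchanged with SOS1 (0.2 μM working solution) and GTP (200 μM working solution) for 2 h at 20 °C in the dark. HTRF 665/615 nm ratio with anti-His-Tb was normalised to T0 and no-compound controls; IC50 by four-parameter fit.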
Turning to `C=CC(=O)N1CCN2C(=O)c3c(N4CCC(N(C)C)C4(C)C)nc(-c4c(O)cccc4F)c(Cl)c3OC[C@H]2C1` (stereo partly drawn) [Z334, (6aR)-8-acryloyl-4-chloro-1-(3-(dimethylamino)-2,2-dimethylpyrrolidin-1-yl)-3-(2-fluoro-6-hydroxyphenyl)-6,6a,7,8,9,10-hexahydro-12H-pyrazino[2,1-c]pyrido[3,4-f][1,4]oxazepin-12-one], the half-maximal inhibitory concentration (IC50) was determined as 79 nM.

In turn, `C=CC(=O)N1CCN2C(=O)c3c(N4CCCC4(C)C)nc(-c4c(O)cccc4F)c(Cl)c3OC[C@H]2C1` [Z22, (6aR)-8-acryloyl-4-chloro-1-(2,2-dimethylpyrrolidin-1-yl)-3-(2-fluoro-6-hydroxyphenyl)-6,6a,7,8,9,10-hexahydro-12H-pyrazino[2,1-c]pyrido[3,4-f][1,4]oxazepin-12-one] came in with an IC50 of 20 nM.

`C=CC(=O)N1CCN2C(=O)c3c(N4C[C@@H](N5CCOCC5)CC4(C)C)nc(-c4c(O)cccc4F)c(Cl)c3OC[C@H]2C1` (single isomer, unassigned) [Z297-2] came in with an IC50 of 8 nM.

`C=CC(=O)N1CCN2C(=O)c3c(N4CCOCC4)nc(-c4nc(N)cc(C)c4C(F)(F)F)c(Cl)c3OC[C@H]2C1` [Z314] yielded a concentration for half-maximal inhibition (IC50) of 43 nM.

The compound `C=CC(=O)N1CCN2C(=O)c3c(N4C[C@@H](O)CC4(C)C)nc(-c4c(F)ccc(Cl)c4O)c(F)c3OC[C@H]2C1` (single isomer, unassigned) [Z341-1] had a 50% inhibitory concentration (IC50) of 35 nM.

`C=CC(=O)N1CCN2C(=O)c3c(N4CC(CO)CC4(C)C)nc(-c4c(O)cccc4F)c(Cl)c3OC[C@H]2C1` (stereo partly drawn) [Z240, (6aR)-8-acryloyl-4-chloro-3-(2-fluoro-6-hydroxyphenyl)-1-(4-(hydroxymethyl)-2,2-dimethylpyrrolidin-1-yl)-6,6a,7,8,9,10-hexahydro-12H-pyrazino[2,1-c]pyrido[3,4-f][1,4]oxazepin-12-one] returned a concentration for half-maximal inhibition (IC50) of 10 nM.

Regarding `C=CC(=O)N1CCN2C(=O)c3c(N4CCC[C@@]4(C)CO)nc(-c4c(O)cccc4F)c(Cl)c3OC[C@H]2C1` [Z279-2], the IC50 came to 29 nM.

`C=CC(=O)N1CCN2C(=O)c3c(N4C[C@@H](OC)CC4(C)C)nc(-c4c(O)cccc4F)c(Cl)c3OC[C@H]2C1` (single isomer, unassigned) [Z244-1] had an IC50 of 26 nM.

In turn, `C=CC(=O)N1CCN2C(=O)c3c(N4C[C@@H](O)CC4(C)C)nc(-c4c(O)cccc4F)c(F)c3OC[C@H]2C1` (single isomer, unassigned) [Z256-1] yielded an IC50 of 26 nM.

The compound `C=CC(=O)N1CCN2C(=O)c3c(N4CCO[C@](C)(CO)C4)nc(-c4c(O)cccc4F)c(Cl)c3OC[C@H]2C1` (single isomer, unassigned) [Z333-1] had an IC50 of 191 nM.

The compound `C=CC(=O)N1CCN2C(=O)c3c(N4C[C@@H](N(C)C)C[C@@H]4C)nc(-c4c(O)cccc4F)c(Cl)c3OC[C@H]2C1` [Z237-2, (6aR)-8-acryloyl-4-chloro-1-((2S,4S)-4-(dimethylamino)-2-methylpyrrolidin-1-yl)-3-(2-fluoro-6-hydroxyphenyl)-6,6a,7,8,9,10-hexahydro-12H-pyrazino[2,1-c]pyrido[3,4-f][1,4]oxazepin-12-one] displayed a half-maximal inhibitory concentration (IC50) of 65 nM.

`C=CC(=O)N1CCN2C(=O)c3c(N4C[C@H](O)[C@H]4C)nc(-c4c(O)cccc4F)c(Cl)c3OC[C@H]2C1` (single isomer, unassigned) [Z102-4] showed an IC50 of 103 nM.

Turning to `C=CC(=O)N1CCN2C(=O)c3c(N4CCC(OC)C4(C)C)nc(-c4c(O)cccc4F)c(Cl)c3OC[C@H]2C1` (stereo partly drawn) [Z241a, (6aR)-8-acryloyl-4-chloro-3-(2-fluoro-6-hydroxyphenyl)-1-(3-methoxy-2,2-dimethylpyrrolidin-1-yl)-6,6a,7,8,9,10-hexahydro-12H-pyrazino[2,1-c]pyrido[3,4-f][1,4]oxazepin-12-one], the concentration for half-maximal inhibition (IC50) amounted to 9 nM.

As for `C=CC(=O)N1CCN2C(=O)c3c(N4CC[C@@H](OC)C4(C)C)nc(-c4c(O)cccc4F)c(F)c3OC[C@H]2C1` (single isomer, unassigned) [Z327-1], the concentration for half-maximal inhibition (IC50) was determined as 26 nM.

Turning to `C=CC(=O)N1CCN2C(=O)c3c(N4C[C@H](N(C)C)CC4(C)C)nc(-c4c(O)cccc4F)c(Cl)c3OC[C@H]2C1` (single isomer, unassigned) [Z324-2], the concentration for half-maximal inhibition (IC50) was found to be 61 nM.

The compound `C=CC(=O)N1CCN2C(=O)c3c(N4CCN(CC)C(C)(C)C4)nc(-c4c(O)cccc4F)c(Cl)c3OC[C@H]2C1` [Z322, (6aR)-8-actyloyl-4-chloro-3-(2-fluoro-6-hydroxyphenyl)-1-(4-ethyl-3,3-dimethylpiperazin-1-yl)-6,6a,7,8,9,10-hexahydro-12H-pyrazino[2,1-c]pyrido[3,4-f][1,4]oxazepin-12-one] yielded a half-inhibitory concentration (IC50) of 62 nM.

`C=CC(=O)N1CCN2C(=O)c3c(N4CC[C@@H](N(C)C)C4(C)C)nc(-c4c(O)cccc4F)c(Cl)c3OC[C@H]2C1` (single isomer, unassigned) [Z360-1] displayed a 50% inhibitory concentration (IC50) of 98.1 nM.

`C=CC(=O)N1CCN2C(=O)c3c(N4C[C@@](C)(O)CC4(C)C)nc(-c4c(O)cccc4F)c(Cl)c3OC[C@H]2C1` (single isomer, unassigned) [Z243-1]: the half-inhibitory concentration (IC50) came to 7 nM.

With `C=CC(=O)N1CCN2C(=O)c3c(N4CC(OC)CC4(C)C)nc(-c4c(O)cccc4F)c(Cl)c3OC[C@H]2C1` (stereo partly drawn) [Z244, (6aR)-8-acryloyl-4-chloro-3-(2-fluoro-6-hydroxyphenyl)-1-(4-methoxy-2,2-dimethylpyrrolidin-1-yl)-12-oxo-6,6a,7,8,9,10-hexahydro-12H-pyrazino[2,1-c]pyrido[3,4-f][1,4]oxazepin-12-one], the concentration for half-maximal inhibition (IC50) came out at 47 nM.

`C=CC(=O)N1CCN2C(=O)c3c(N4CCN(C(C)=O)C[C@@H]4C)nc(-c4c(O)cccc4F)c(Cl)c3OC[C@H]2C1` [Z313-1] showed an IC50 of 13 nM.

In turn, `C=CC(=O)N1CCN2C(=O)c3c(N4CCN(S(C)(=O)=O)C[C@@H]4C)nc(-c4c(O)cccc4F)c(Cl)c3OC[C@H]2C1` [Z318-1, (6aR)-8-acryloyl-1-((S)-2-methyl-4-(methylsulfonyl)piperazin-1-yl)-4-chloro-3-(2-fluoro-6-hydroxyphenyl)-6,6a,7,8,9,10-hexahydro-12H-pyrazino[2,1-c]pyrido[3,4-f][1,4]oxazepin-12-one] came in with an IC50 of 37 nM.

Turning to `C=CC(=O)N1CCN2C(=O)c3c(N4CCN(C(=O)CC)C[C@@H]4C)nc(-c4c(O)cccc4F)c(Cl)c3OC[C@H]2C1` [Z316-1, (6aR)-8-acryloyl-4-chloro-3-(2-fluoro-6-hydroxyphenyl)-1-((S)-2-methyl-4-propionylpiperazin-1-yl)-6,6a,7,8,9,10-hexahydro-12H-pyrazino[2,1-c]pyrido[3,4-f][1,4]oxazepin-12-one], the IC50 was 9 nM.
